IC50 data for 22 compounds are collected here from ChEMBL document CHEMBL1144916, “Identification of N,N-disubstituted phenylalanines as a novel class of inhibitors of hepatitis C NS5B polymerase” (J Med Chem, 2003).

The structures appear in SMILES notation.

RNA-directed RNA polymerase, sequence (O39930 whole entry): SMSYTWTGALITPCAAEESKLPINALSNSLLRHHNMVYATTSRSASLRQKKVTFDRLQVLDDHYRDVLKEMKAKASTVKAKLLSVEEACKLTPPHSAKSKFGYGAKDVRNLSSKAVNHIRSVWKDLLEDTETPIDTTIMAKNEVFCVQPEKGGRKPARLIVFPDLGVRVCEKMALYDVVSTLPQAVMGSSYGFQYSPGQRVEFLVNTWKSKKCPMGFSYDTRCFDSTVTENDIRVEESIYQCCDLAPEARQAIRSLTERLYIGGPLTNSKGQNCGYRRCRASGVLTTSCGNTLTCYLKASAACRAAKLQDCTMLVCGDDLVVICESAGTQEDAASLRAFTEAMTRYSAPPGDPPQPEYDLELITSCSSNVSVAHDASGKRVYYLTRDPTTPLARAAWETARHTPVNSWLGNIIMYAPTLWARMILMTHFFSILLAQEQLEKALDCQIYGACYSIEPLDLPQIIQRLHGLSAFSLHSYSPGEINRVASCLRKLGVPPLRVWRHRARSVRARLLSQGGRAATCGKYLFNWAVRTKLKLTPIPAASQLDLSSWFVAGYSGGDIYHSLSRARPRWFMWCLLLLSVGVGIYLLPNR

The assay addresses RNA-directed RNA polymerase (Hepacivirus hominis, UniProt O39930). Briefly: Inhibitory activity against Hepatitis C RNA dependent RNA polymerase Nonstructural protein 5B (NS5B polymerase) expressed from baculovirus-infected Sf9 insect cells.
As usually defined, the IC50 is the concentration needed to halve the response being measured. With `O=C(O)[C@H](Cc1ccccc1)N(Cc1ccc[n+]([O-])c1)C(=O)c1ccc(Cl)cc1Cl`, half-maximal inhibition (IC50) required 2.7 µM.

`O=C(O)[C@H](Cc1ccccc1)N(Cc1ccccc1Br)C(=O)c1ccc(Cl)cc1Cl` had an IC50 of 8 µM.

The compound `O=C(O)[C@H](Cc1ccccc1)N(Cc1ccccc1)C(=O)c1ccc(Cl)cc1Cl` returned an IC50 of 8 µM. With `N#Cc1cccc(CN(C(=O)c2ccc(Cl)cc2Cl)[C@@H](Cc2ccccc2)C(=O)O)c1` the figure was 0.8 µM; with `O=C(O)[C@H](Cc1ccccc1)N(Cc1cccc(C(F)(F)F)c1)C(=O)c1ccc(Cl)cc1Cl`, 1.7 µM. With `O=C(O)[C@H](Cc1ccccc1)N(Cc1cccnc1)C(=O)c1ccc(Cl)cc1Cl` the figure was 11 µM; with `COc1ccc(-c2ccc(Cl)cc2)c(COc2ccc(-c3nc4cc(C(=O)O)ccc4n3C3CCCCC3)cc2)c1`, 0.62 µM; with `O=C(O)[C@H](Cc1ccccc1)N(Cc1ccc(-c2cc3ccccc3o2)s1)C(=O)c1ccc(Cl)cc1Cl`, 8.6 µM. In the case of `O=C(O)[C@H](Cc1ccccc1)N(Cc1cccc(Br)c1)C(=O)c1ccc(Cl)cc1`, inhibition was half-maximal at 11 µM (IC50).

The compound `O=C(O)[C@H](Cc1ccccc1)N(Cc1cccc(Br)c1)C(=O)c1ccccc1Cl` gave an IC50 of 15 µM. Regarding `O=C(O)[C@H](Cc1ccccc1)N(Cc1cccc(Br)c1)C(=O)c1ccc(Cl)cc1Cl`, 3.5 µM corresponded to half-maximal inhibition (IC50). In turn, `Cc1cccc(CN(C(=O)c2ccc(Cl)cc2Cl)[C@@H](Cc2ccccc2)C(=O)O)c1` had an IC50 of 1.8 µM. As to `O=C(O)[C@H](Cc1ccccc1)N(Cc1cccc([N+](=O)[O-])c1)C(=O)c1ccc(Cl)cc1Cl`, the IC50 was 0.7 µM. To `O=C(O)[C@H](Cc1ccccc1)N(Cc1ccc(Br)s1)C(=O)c1ccc(Cl)cc1Cl` belongs 3.1 µM.

Regarding `O=C(O)[C@H](Cc1ccccc1)N(Cc1ccc(-c2nccs2)cc1)C(=O)c1ccc(Cl)cc1Cl`, it took 5.7 µM to reach half-maximal inhibition (IC50). To `O=C(O)[C@H](Cc1ccccc1)N(Cc1cccc(F)c1)C(=O)c1ccc(Cl)cc1Cl` belongs 3.2 µM; to `O=C(O)CN(Cc1cccc(Br)c1)C(=O)c1ccc(Cl)cc1Cl`, 53 µM. To `N#Cc1ccccc1CN(C(=O)c1ccc(Cl)cc1Cl)[C@@H](Cc1ccccc1)C(=O)O` belongs 6 µM; to `N#Cc1ccc(CN(C(=O)c2ccc(Cl)cc2Cl)[C@@H](Cc2ccccc2)C(=O)O)cc1`, 8 µM; to `O=C(O)[C@@H](Cc1ccccc1)N(Cc1cccc(Br)c1)C(=O)c1ccc(Cl)cc1Cl`, 8.6 µM.

Consider `O=C(O)[C@H](Cc1ccccc1)N(Cc1ccc(Br)cc1)C(=O)c1ccc(Cl)cc1Cl`, for which half-maximal inhibition (IC50) required 9.1 µM. The IC50 values of the last two compounds are within 1.5-fold of each other. To `O=C(O)[C@H](Cc1ccccc1)N(Cc1cccc(Cl)c1)C(=O)c1ccc(Cl)cc1Cl` belongs 1.4 µM.
